The values that follow come from patent publication US20260234136A1, “ISOXAZOLIDINES AS RIPK1 INHIBITORS AND USE THEREOF” (GENZYME CORPORATION, priority 2023, published 2026).

The structures appear in SMILES notation. ≈ marks a conversion by molar mass, not a printed value.

The test system of one data set is U937 cells. Description: Cellular assay in U937 cells to measure the activity of RIPK1-inhibitors on cell death (necroptosis). Type of data set: cell-based. Conditions: Homo sapiens, U-937, 50 μM zVAD.fmk and 100 ng/ml recombinant human TNFα, overnight (18 to 24 hrs), MTS readout. The method, then: Absorbance of formazan was read at 490 nm. The inhibitory activity of the test compound was quantified in a concentration response curve (CRC) experiment.
Compounds were obtained as 10 mM stock solutions and were diluted 1 to 10 volumes with DMSO to yield a 1 mM solution. From this solution 2 μl were diluted with 998 μl growth medium.
U937 cells were cultured in RPMI1640 Glutamax and 10% heat inactivated FBS. […] 50 μl of compound dilutions, as described in Cellular assay in U937 cells, were added and the cell suspension incubated overnight (18 to 24 hrs) at 37° C., 5% CO2 in a humidified atmosphere (95% rH).
CellTiter 96 Aqueous reagent was mixed (100 μl PMS (phenazine methosulfate) solution/2 ml MTS (3-(4,5-[…])-5-(3-carboxymethoxyphenyl)-2-(4-sulfophenyl)-2H-tetrazolium, inner salt) solution) and 20 μl were added per well. After 4 hrs incubation at 37° C. (5% CO2 95% rH) optical density was measured at 490 nm on a microplate reader (Tecan Infinite M1000).
The % inhibition is expressed as percentage of the maximal inhibition value obtained in the absence of TNFα/zVAD.fmc.

The nature of a further data set: physchem. Conditions: 50 mM phosphate buffer, 25 °C, pH 7.4, aqueous buffer, thermodynamic from solid.

The IC50 is the concentration needed to halve the response being measured. What is called solubility is how much of the substance goes into solution per volume. A low value points to little dissolved substance. On to `CO[C@H]1CCCN(c2ccnc(N3CCC(C(=O)N4OCC[C@H]4c4ccc(C)nc4)CC3)n2)C1=O` [Example 94, (3S)-3-methoxy-1-[2-[4-[(3S)-3-(6-methylpyridin-3-yl)-1,2-oxazolidine-2-carbonyl]piperidin-1-yl]pyrimidin-4-yl]piperidin-2-one], for which, in the data set with U937 cells, the half-inhibitory concentration (IC50) worked out at 0.216 µM. In “physchem”, this compound came in with a solubility at 16 h above 1040 µM.
For `O=C(C1CCN(c2ncnc(-c3nccs3)n2)CC1)N1OCC[C@H]1c1cnccn1` [Example 14, [(3S)-3-pyrazin-2-ylisoxazolidin-2-yl]-[1-(4-thiazol-2-yl-1,3,5-triazin-2-yl)-4-piperidyl]methanone] the same measures were 0.009 µM and above 1180 µM.
`O=C(C1CCN(c2nc(-c3cncnc3)ncc2F)CC1)N1OCC[C@H]1c1cnccn1` [Example 25, [1-(5-fluoro-2-pyrimidin-5-yl-pyrimidin-4-yl)-4-piperidyl]-[(3S)-3-pyrazin-2-ylisoxazolidin-2-yl]methanone]: in the data set on U937 cells, the 50% inhibitory concentration (IC50) came to 0.015 µM. The compound also registered a solubility at 16 h in “physchem” of 69.2 µM (≈ 30.2 µg/mL).
Consider `Cc1ncc([C@@H]2CCON2C(=O)C2CCN(c3cc(-n4ccnc4C)ncn3)CC2)cc1F` [Example 21, [(3S)-3-(5-fluoro-6-methyl-3-pyridyl)isoxazolidin-2-yl]-[1-[6-(2-methylimidazol-1-yl)pyrimidin-4-yl]-4-piperidyl]methanone], for which the IC50 in the data set with U937 cells stood at 0.073 µM. Moreover, in the data set “physchem”, the solubility at 16 h is above 1110 µM.
As for `Cc1ncc([C@@H]2CCON2C(=O)C2CCN(c3ncnc(-c4ccnn4C)n3)CC2)cc1F` [Example 45, [(3S)-3-(5-fluoro-6-methylpyridin-3-yl)-1,2-oxazolidin-2-yl]-[1-[4-(2-methylpyrazol-3-yl)-1,3,5-triazin-2-yl]piperidin-4-yl]methanone], the IC50 in the data set with U937 cells stood at 0.001 µM. The solubility at 16 h in the data set “physchem” was 904 µM (≈ 409 µg/mL).
On to `CO[C@@H]1CCCN(c2ccnc(N3CCC(C(=O)N4OCC[C@H]4c4cncc(F)c4)CC3)n2)C1=O` [Example 96, (3R)-1-[2-[4-[(3S)-3-(5-fluoropyridin-3-yl)-1,2-oxazolidine-2-carbonyl]piperidin-1-yl]pyrimidin-4-yl]-3-methoxypiperidin-2-one], for which the IC50 with U937 cells was determined as 0.149 µM. The solubility at 16 h in “physchem” was above 1030 µM.
As to `Cc1ncc([C@@H]2CCON2C(=O)C2CCN(c3nccc(N4CCCC4=O)n3)CC2)cc1F` [Example 56, 1-[2-[4-[(3S)-3-(5-fluoro-6-methylpyridin-3-yl)-1,2-oxazolidine-2-carbonyl]piperidin-1-yl]pyrimidin-4-yl]pyrrolidin-2-one], in the data set on U937 cells, the IC50 stood at 0.021 µM. Also, the solubility at 16 h in the data set “physchem” was above 1100 µM.
In the case of `Cc1ncc([C@@H]2CCON2C(=O)C2CCN(c3nccc(-n4ccnc4C)n3)CC2)cc1F` [Example 20, [(3S)-3-(5-fluoro-6-methyl-3-pyridyl)isoxazolidin-2-yl]-[1-[4-(2-methylimidazol-1-yl)pyrimidin-2-yl]-4-piperidyl]methanone], the IC50 with U937 cells turned out to be 0.001 µM. The solubility at 16 h in “physchem” was 21.4 µM (≈ 9.66 µg/mL).
Consider `Cc1ccc([C@@H]2CCON2C(=O)[C@@H]2CCN(c3cc(-n4ccnc4C)ncn3)CC23CC3)cn1` (single isomer, unassigned) [Example 78], for which the IC50 in the data set on U937 cells was determined as 0.032 µM. Further, the solubility at 16 h in “physchem” is above 1090 µM.
Turning to `O=C1CCCN1c1nc(N2CCC(C(=O)N3OCC[C@H]3c3cnccn3)CC2)ncc1F` [Example 6, 1-[5-fluoro-2-[4-[(3S)-3-pyrazin-2-ylisoxazolidine-2-carbonyl]-1-piperidyl]pyrimidin-4-yl]pyrrolidin-2-one], the IC50 in the data set with U937 cells stood at 0.008 µM. The solubility at 16 h in “physchem” is above 1130 µM.
As to `Cc1nc([C@@H]2CCON2C(=O)C2CCN(c3nccc(N4CCC(F)(F)C4=O)n3)CC2)cs1` [Example 59, 3,3-difluoro-1-[2-[4-[(3S)-3-(2-methyl-1,3-thiazol-4-yl)-1,2-oxazolidine-2-carbonyl]piperidin-1-yl]pyrimidin-4-yl]pyrrolidin-2-one], in the data set with U937 cells, the IC50 was determined as 0.08 µM. In addition, the solubility at 16 h in the data set “physchem” was 217 µM (≈ 104 µg/mL).
The corresponding values for `Cc1nccn1-c1nccc(N2CCC(C(=O)N3OCC[C@H]3c3cnccn3)CC2)n1` [Example 29, (S)-(1-(2-(2-methyl-1H-imidazol-1-yl)pyrimidin-4-yl)piperidin-4-yl)(3-(pyrazin-2-yl)isoxazolidin-2-yl)methanone] are 0.006 µM and above 1190 µM.
On to `O=C(C1CCN(c2nccc(-c3ncco3)n2)CC1)N1OCC[C@H]1c1cnccn1` [Example 11, [1-(4-oxazol-2-ylpyrimidin-2-yl)-4-piperidyl]-[(3S)-3-pyrazin-2-ylisoxazolidin-2-yl]methanone], for which the concentration for half-maximal inhibition (IC50) with U937 cells came to 0.01 µM. In “physchem”, the solubility at 16 h was above 2780 µM.
With `O=C(C1CCN(c2ncc(F)c(N3CCC4(CC4)C3=O)n2)CC1)N1OCC[C@H]1c1cncc(F)c1` [Example 104, 5-[5-fluoro-2-[4-[(3S)-3-(5-fluoropyridin-3-yl)-1,2-oxazolidine-2-carbonyl]piperidin-1-yl]pyrimidin-4-yl]-5-azaspiro[2.4]heptan-4-one], the half-maximal inhibitory concentration (IC50) in the data set on U937 cells is 0.002 µM. Also, the solubility at 16 h in the data set “physchem” was above 1030 µM.
In the case of `Cc1nc([C@@H]2CCON2C(=O)C2CCN(c3nccc(N4CCC5(CC5)C4=O)n3)CC2)cs1` [Example 52, 5-[2-[4-[(3S)-3-(2-methyl-1,3-thiazol-4-yl)-1,2-oxazolidine-2-carbonyl]piperidin-1-yl]pyrimidin-4-yl]-5-azaspiro[2.4]heptan-4-one], the half-inhibitory concentration (IC50) in the data set on U937 cells worked out at 0.024 µM. This compound also had a solubility at 16 h in the data set “physchem” of 321 µM (≈ 151 µg/mL).
On to `Cc1nc([C@@H]2CCON2C(=O)C2CCN(c3nccc(N4CCCC4=O)n3)CC2)co1` [Example 95, 1-[2-[4-[(3S)-3-(2-methyl-1,3-oxazol-4-yl)-1,2-oxazolidine-2-carbonyl]piperidin-1-yl]pyrimidin-4-yl]pyrrolidin-2-one], for which the IC50 in the data set on U937 cells was 0.026 µM. In the data set “physchem”, the solubility at 16 h is above 1170 µM.
For `Cc1ncc([C@@H]2CCON2C(=O)[C@@H]2CCN(c3ncnc(-c4ccnn4C)n3)CC23CC3)cc1F` [Example 48, [(3S)-3-(5-fluoro-6-methylpyridin-3-yl)-1,2-oxazolidin-2-yl]-[(8R)-5-[4-(2-methylpyrazol-3-yl)-1,3,5-triazin-2-yl]-5-azaspiro[2.5]octan-8-yl]methanone], in the data set with U937 cells, the IC50 came to 0.003 µM. In “physchem”, the solubility at 16 h amounted to 231 µM (≈ 111 µg/mL).
For the compound `Cc1cnn(-c2ccnc(N3CCC(C(=O)N4OCC[C@H]4c4ccc(C)nc4)CC3)n2)c1` [Example 9, [1-[4-(4-methylpyrazol-1-yl)pyrimidin-2-yl]-4-piperidyl]-[(3S)-3-(6-methyl-3-pyridyl)isoxazolidin-2-yl]methanone], in the data set on U937 cells, the IC50 came out at 0.029 µM. Moreover, the solubility at 16 h in the data set “physchem” was 173 µM (≈ 74.9 µg/mL).
As for `Cc1ccc([C@@H]2CCON2C(=O)C2CCN(c3ccnc(N4CCC(C)(C)C4=O)n3)CC2)cn1` [Example 84, 3,3-dimethyl-1-[4-[4-[(3S)-3-(6-methylpyridin-3-yl)-1,2-oxazolidine-2-carbonyl]piperidin-1-yl]pyrimidin-2-yl]pyrrolidin-2-one], the half-maximal inhibitory concentration (IC50) with U937 cells turned out to be 8.13 µM. The same compound gave a solubility at 16 h in the data set “physchem” above 1080 µM.
Turning to `Cc1ccc([C@@H]2CCON2C(=O)C2CCN(c3ncc(F)c(-n4ccnc4C)n3)CC2)cn1` [Example 77, [1-[5-fluoro-4-(2-methylimidazol-1-yl)pyrimidin-2-yl]piperidin-4-yl]-[(3S)-3-(6-methylpyridin-3-yl)-1,2-oxazolidin-2-yl]methanone], in the data set with U937 cells, the IC50 came out at 0.001 µM. Moreover, the solubility at 16 h in “physchem” is above 1110 µM.
For the compound `Cn1nccc1-c1nccc(N2CCC(C(=O)N3OCC[C@H]3c3cnccn3)CC2)n1` [Example 24, [1-[2-(2-methylpyrazol-3-yl)pyrimidin-4-yl]-4-piperidyl]-[(3S)-3-pyrazin-2-ylisoxazolidin-2-yl]methanone], the half-maximal inhibitory concentration (IC50) in the data set on U937 cells came out at 0.009 µM. This compound had a solubility at 16 h in the data set “physchem” above 1190 µM.
Turning to `Cc1ncc([C@@H]2CCON2C(=O)[C@@H]2CCN(c3cc(-c4ncnn4C)ncn3)CC23CC3)cc1F` [Example 43, [(3S)-3-(5-fluoro-6-methylpyridin-3-yl)-1,2-oxazolidin-2-yl]-[(8R)-5-[6-(2-methyl-1,2,4-triazol-3-yl)pyrimidin-4-yl]-5-azaspiro[2.5]octan-8-yl]methanone], in the data set with U937 cells, the IC50 worked out at 0.057 µM. In “physchem”, this compound returned a solubility at 16 h above 1040 µM.
As for `Cc1nc([C@@H]2CCON2C(=O)C2CCN(c3cc(-c4ncnn4C)ncn3)CC2)cs1` [Example 40, [(3S)-3-(2-methyl-1,3-thiazol-4-yl)-1,2-oxazolidin-2-yl]-[1-[6-(2-methyl-1,2,4-triazol-3-yl)pyrimidin-4-yl]piperidin-4-yl]methanone], the IC50 with U937 cells amounted to 0.04 µM. The same compound gave a solubility at 16 h in “physchem” of 136 µM (≈ 60 µg/mL).
For `O=C1CCCN1c1ccnc(N2CC[C@@H](C(=O)N3OCC[C@H]3c3cnccn3)C3(CC3)C2)n1` [Example 100, 1-[2-[(8R)-8-[(3S)-3-pyrazin-2-yl-1,2-oxazolidine-2-carbonyl]-5-azaspiro[2.5]octan-5-yl]pyrimidin-4-yl]pyrrolidin-2-one], the IC50 with U937 cells turned out to be 0.012 µM. In the data set “physchem”, this compound showed a solubility at 16 h of 269 µM (≈ 121 µg/mL).
Take `Cc1ccc([C@@H]2CCON2C(=O)C2CCN(c3ncnc(-c4ccnn4C)n3)CC2)cn1` [Example 8]: the IC50 in the data set with U937 cells came out at 0.003 µM. Moreover, the solubility at 16 h in “physchem” was determined as 328 µM (≈ 142 µg/mL).
